ChEMBL document CHEMBL3352542, “Synthesis, biological evaluation and molecular modeling study of 2-(1,3,4-thiadiazolyl-thio and 4-methyl-thiazolyl-thio)-quinazolin-4-ones as a new class of DHFR inhibitors” (Bioorg Med Chem Lett, 2014)
Activity calls are given as the source filed them. The rule behind the calls is not given here.

Legend:
Dihydrofolate reductase = target: T1, Dihydrofolate reductase (Bos taurus, UniProt P00376); assay: Inhibition of bovine liver DHFR
T1 sequence (P00376 whole entry): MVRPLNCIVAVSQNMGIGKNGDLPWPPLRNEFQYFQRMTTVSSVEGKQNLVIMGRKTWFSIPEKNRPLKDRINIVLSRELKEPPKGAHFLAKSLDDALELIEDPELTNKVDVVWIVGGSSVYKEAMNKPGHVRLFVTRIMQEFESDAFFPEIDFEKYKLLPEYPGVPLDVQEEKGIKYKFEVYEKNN

Staphylococcus aureus [1] = assay: Antimicrobial activity against Staphylococcus aureus assessed as inhibition zone at 200 ug/disk after 24 hrs by disc-diffusion method; format: functional; details: read-out: IZ
Bacillus subtilis [2] = assay: Antimicrobial activity against Bacillus subtilis assessed as inhibition zone at 200 ug/disk after 24 hrs by disc-diffusion method; format: functional; details: read-out: IZ
Escherichia coli = assay: Antimicrobial activity against Escherichia coli assessed as inhibition zone at 200 ug/disk after 24 hrs by disc-diffusion method; format: functional; details: read-out: IZ
Pseudomonas aeruginosa = assay: Antimicrobial activity against Pseudomonas aeruginosa assessed as inhibition zone at 200 ug/disk after 24 hrs by disc-diffusion method; format: functional; details: read-out: IZ
Candida albicans = assay: Antimicrobial activity against Candida albicans assessed as inhibition zone at 200 ug/disk after 24 hrs by disc-diffusion method; format: functional; details: read-out: IZ
Staphylococcus aureus [3] = assay: Antimicrobial activity against Staphylococcus aureus assessed as inhibition of visible growth after 24 hrs by disc-diffusion method; format: functional, organism-based
Bacillus subtilis [4] = assay: Antimicrobial activity against Bacillus subtilis assessed as inhibition of visible growth after 24 hrs by disc-diffusion method; format: functional, organism-based
CCRF-CEM = assay: Growth inhibition of human CCRF-CEM cells at 10 uM after 48 hrs; format: functional
HL-60(TB) = assay: Growth inhibition of human HL-60(TB) cells at 10 uM after 48 hrs; format: functional
K562 = assay: Growth inhibition of human K562 cells at 10 uM after 48 hrs; format: functional
MOLT-4 = assay: (§1) Growth inhibition of human MOLT4 cells at 10 uM after 48 hrs; format: functional
RPMI-8226 = assay: Growth inhibition of human RPMI8226 cells at 10 uM after 48 hrs; format: functional
SR = assay: Growth inhibition of human SR cells at 10 uM after 48 hrs; format: functional
A549 = assay: Growth inhibition of human A549 cells at 10 uM after 48 hrs; format: functional
HOP-92 = assay: (§2) Growth inhibition of human HOP92 cells at 10 uM after 48 hrs; format: functional
NCI-H226 = assay: Growth inhibition of human NCI-H226 cells at 10 uM after 48 hrs; format: functional
NCI-H23 = assay: Growth inhibition of human NCI-H23 cells at 10 uM after 48 hrs; format: functional
NCI-H460 = assay: Growth inhibition of human NCI-H460 cells at 10 uM after 48 hrs; format: functional
NCI-H522 = assay: Growth inhibition of human NCI-H522 cells at 10 uM after 48 hrs; format: functional
COLO 205 = assay: Growth inhibition of human COLO205 cells at 10 uM after 48 hrs; format: functional
HCC 2998 = assay: Growth inhibition of human HCC2998 cells at 10 uM after 48 hrs; format: functional
HCT-116 = assay: Growth inhibition of human HCT116 cells at 10 uM after 48 hrs; format: functional
HCT-15 = assay: Growth inhibition of human HCT15 cells at 10 uM after 48 hrs; format: functional
HT-29 = assay: Growth inhibition of human HT-29 cells at 10 uM after 48 hrs; format: functional
KM12 = assay: Growth inhibition of human KM12 cells at 10 uM after 48 hrs; format: functional
SW-620 = assay: Growth inhibition of human SW620 cells at 10 uM after 48 hrs; format: functional
SF-268 = assay: Growth inhibition of human SF268 cells at 10 uM after 48 hrs; format: functional
SF-295 = assay: (§3) Growth inhibition of human SF295 cells at 10 uM after 48 hrs; format: functional
SF-539 = assay: Growth inhibition of human SF539 cells at 10 uM after 48 hrs; format: functional
SNB-19 = assay: Growth inhibition of human SNB19 cells at 10 uM after 48 hrs; format: functional
SNB-75 = assay: Growth inhibition of human SNB75 cells at 10 uM after 48 hrs; format: functional
U-251 = assay: Growth inhibition of human U251 cells at 10 uM after 48 hrs; format: functional
LOX IMVI = assay: Growth inhibition of human LOXIMVI cells at 10 uM after 48 hrs; format: functional
Malme-3M = assay: Growth inhibition of human MALME-3M cells at 10 uM after 48 hrs; format: functional
M14 = assay: Growth inhibition of human M14 cells at 10 uM after 48 hrs; format: functional
MDA-MB-435 = assay: Growth inhibition of human MDA-MB-435 cells at 10 uM after 48 hrs; format: functional
SK-MEL-5 = assay: Growth inhibition of human SK-MEL-5 cells at 10 uM after 48 hrs; format: functional
UACC-257 = assay: Growth inhibition of human UACC257 cells at 10 uM after 48 hrs; format: functional
UACC-62 = assay: Growth inhibition of human UACC62 cells at 10 uM after 48 hrs; format: functional
OVCAR-3 = assay: Growth inhibition of human OVCAR3 cells at 10 uM after 48 hrs; format: functional
OVCAR-4 = assay: Growth inhibition of human OVCAR4 cells at 10 uM after 48 hrs; format: functional
OVCAR-5 = assay: Growth inhibition of human OVCAR5 cells at 10 uM after 48 hrs; format: functional
OVCAR-8 = assay: Growth inhibition of human OVCAR8 cells at 10 uM after 48 hrs; format: functional
NCI/ADR-RES = assay: Growth inhibition of human NCI-ADR-RES cells at 10 uM after 48 hrs; format: functional
786-0 = assay: Growth inhibition of human 786-0 cells at 10 uM after 48 hrs; format: functional
A498 = assay: Growth inhibition of human A498 cells at 10 uM after 48 hrs; format: functional
ACHN = assay: Growth inhibition of human ACHN cells at 10 uM after 48 hrs; format: functional
CAKI-1 = assay: Growth inhibition of human CAKI-1 cells at 10 uM after 48 hrs; format: functional
RXF 393 = assay: Growth inhibition of human RXF393 cells at 10 uM after 48 hrs; format: functional
SN12C = assay: Growth inhibition of human SN12C cells at 10 uM after 48 hrs; format: functional
TK-10 = assay: Growth inhibition of human TK10 cells at 10 uM after 48 hrs; format: functional
UO-31 = assay: (§4) Growth inhibition of human UO31 cells at 10 uM after 48 hrs; format: functional
PC-3 = assay: Growth inhibition of human PC3 cells at 10 uM after 48 hrs; format: functional
MCF7 = assay: Growth inhibition of human MCF7 cells at 10 uM after 48 hrs; format: functional
MDA-MB-231 = assay: Growth inhibition of human MDA-MB-231 cells at 10 uM after 48 hrs; format: functional
Hs-578T = assay: Growth inhibition of human Hs 578T cells at 10 uM after 48 hrs; format: functional
BT-549 = assay: Growth inhibition of human BT549 cells at 10 uM after 48 hrs; format: functional
T47D = assay: Growth inhibition of human T47D cells at 10 uM after 48 hrs; format: functional
MDA-MB-468 = assay: Growth inhibition of human MDA-MB-468 cells at 10 uM after 48 hrs; format: functional
[5] = as §1; format: functional; details: MOLT-4, 48 h, read-out: GI
[6] = as §2; format: functional; details: HOP-92, 48 h, read-out: GI
[7] = as §3; format: functional; details: SF-295, 48 h, read-out: GI
[8] = as §4; format: functional; details: UO-31, 48 h, read-out: GI

## COc1cc2nc(Sc3sc(N)nc3C)n(Cc3ccccc3)c(=O)c2cc1OC
Dihydrofolate reductase
  IC50: 6 µM
Staphylococcus aureus [1]
  zone of inhibition at 200 µg/disc: 20 mm
Bacillus subtilis [2]
  zone of inhibition at 200 µg/disc: 24 mm
Escherichia coli
  zone of inhibition at 200 µg/disc: 8 mm
Pseudomonas aeruginosa
  zone of inhibition at 200 µg/disc: 8 mm
Candida albicans
  zone of inhibition at 200 µg/disc: 8 mm
Staphylococcus aureus [3]
  Activity: Active
Bacillus subtilis [4]
  Activity: Active
CCRF-CEM
  growth inhibition (GI): inactive
HL-60(TB)
  growth inhibition (GI): inactive
K562
  growth inhibition (GI): inactive
MOLT-4
  growth inhibition (GI): inactive
RPMI-8226
  growth inhibition (GI): inactive
SR
  growth inhibition (GI): inactive
A549
  growth inhibition (GI): inactive
HOP-92
  growth inhibition (GI): inactive
NCI-H226
  growth inhibition (GI): inactive
NCI-H23
  growth inhibition (GI): inactive
NCI-H460
  growth inhibition (GI): inactive
NCI-H522
  growth inhibition (GI): inactive
COLO 205
  growth inhibition (GI): inactive
HCC 2998
  growth inhibition (GI): inactive
HCT-116
  growth inhibition (GI): inactive
HCT-15
  growth inhibition (GI): inactive
HT-29
  growth inhibition (GI): inactive
KM12
  growth inhibition (GI): inactive
SW-620
  growth inhibition (GI): inactive
SF-268
  growth inhibition (GI): inactive
SF-295
  growth inhibition (GI): inactive
SF-539
  growth inhibition (GI): inactive
SNB-19
  growth inhibition (GI): inactive
SNB-75
  growth inhibition (GI): inactive
U-251
  growth inhibition (GI): inactive
LOX IMVI
  growth inhibition (GI): inactive
Malme-3M
  growth inhibition (GI): inactive
M14
  growth inhibition (GI): inactive
MDA-MB-435
  growth inhibition (GI): inactive
SK-MEL-5
  growth inhibition (GI): inactive
UACC-257
  growth inhibition (GI): inactive
UACC-62
  growth inhibition (GI): inactive
OVCAR-3
  growth inhibition (GI): inactive
OVCAR-4
  growth inhibition (GI): inactive
OVCAR-5
  growth inhibition (GI): inactive
OVCAR-8
  growth inhibition (GI): inactive
NCI/ADR-RES
  growth inhibition (GI): inactive
786-0
  growth inhibition (GI): inactive
A498
  growth inhibition (GI): inactive
ACHN
  growth inhibition (GI): inactive
CAKI-1
  growth inhibition (GI): inactive
RXF 393
  growth inhibition (GI): inactive
SN12C
  growth inhibition (GI): inactive
TK-10
  growth inhibition (GI): inactive
UO-31
  growth inhibition (GI): inactive
PC-3
  growth inhibition (GI): inactive
MCF7
  growth inhibition (GI): inactive
MDA-MB-231
  growth inhibition (GI): inactive
Hs-578T
  growth inhibition (GI): inactive
BT-549
  growth inhibition (GI): inactive
T47D
  growth inhibition (GI): inactive
MDA-MB-468
  growth inhibition (GI): inactive

## COc1cc2nc(Sc3nnc(N)s3)n(Cc3ccccc3)c(=O)c2cc1OC
Dihydrofolate reductase
  IC50: 6 µM
Staphylococcus aureus [1]
  zone of inhibition at 200 µg/disc: 8 mm
Bacillus subtilis [2]
  zone of inhibition at 200 µg/disc: 14 mm
Escherichia coli
  zone of inhibition at 200 µg/disc: 8 mm
Pseudomonas aeruginosa
  zone of inhibition at 200 µg/disc: 8 mm
Candida albicans
  zone of inhibition at 200 µg/disc: 8 mm
[5]
  inhibition of growth at 10 µM: 18.5%
SR; read-out: GI
  inhibition of growth at 10 µM: 13.4%
[6]
  inhibition of growth at 10 µM: 26.7%
[7]
  inhibition of growth at 10 µM: 11.4%
A498; A498, 48 h, read-out: GI
  inhibition of growth at 10 µM: 18.7%
[8]
  inhibition of growth at 10 µM: 21.5%
